The series is described as follows: Stability of daptomycin in a transient daptomycin-linker hydrogel conjugate versus free daptomycin. Type of series: physicochemical. The conditions noted are these: pH 7.4 and 37° C.; at day seven; UPLC peak area ratio at 215 nm. As to the method:
The relative stability of the covalently bound daptomycin in a transient daptomycin-linker hydrogel conjugate towards hydrolytic and other degradation pathways in comparison to free daptomycin was investigated. […] The supernatant of the carrier sample was exchanged five times within a week and the daptomycin purity in these samples was analyzed by UPLC. In parallel, analytical samples of the free daptomycin control solution were also analyzed by UPLC at the same incubation times. The purity of daptomycin in the samples was calculated as the ratio of the peak area of the intact daptomycin peak at 215 nm relative to the area sum of all daptomycin-related peaks identified at 215 nm.

Consider `CCCCCCCCCC(=O)N[C@@H](Cc1c[nH]c2ccccc12)C(=O)N[C@H](CC(N)=O)C(=O)N[C@@H](CC(=O)O)C(=O)N[C@@H]1C(=O)NCC(=O)N[C@@H](CCCN)C(=O)N[C@@H](CC(=O)O)C(=O)N[C@H](C)C(=O)N[C@@H](CC(=O)O)C(=O)NCC(=O)N[C@H](CO)C(=O)N[C@@H]([C@H](C)CC(=O)O)C(=O)N[C@@H](CC(=O)c2ccccc2N)C(=O)O[C@@H]1C` [daptomycin], for which the “purity of the free daptomycin in the solution control sample” value was 72%.

The record behind these values is patent publication US20210330807A1, “NOVEL HYDROGEL CONJUGATES” (priority 2018, published 2021).
